Here are results for 14 compounds from patent publication US4585866A, “Treatment of migraine with substituted tropyl benzoate derivatives” (Merrell Dow Pharmaceuticals Inc., priority 1984, dated 1986).

Structures are written as SMILES.

In one data set the test system is 5-HT D-receptor. The conditions noted are these: at the doses used clinically for the treatment of migraine; cited from earlier work.
Data set [1] addresses T1, 5-HT M-receptor (Oryctolagus cuniculus, UniProt A0A5F9C9J3).
T1 construct: determining their pA2 values in the isolated rabbit heart; from tissue; host or cells: isolated rabbit heart (receptor on the cardiac neurones)
T1 sequence (A0A5F9C9J3 1-494): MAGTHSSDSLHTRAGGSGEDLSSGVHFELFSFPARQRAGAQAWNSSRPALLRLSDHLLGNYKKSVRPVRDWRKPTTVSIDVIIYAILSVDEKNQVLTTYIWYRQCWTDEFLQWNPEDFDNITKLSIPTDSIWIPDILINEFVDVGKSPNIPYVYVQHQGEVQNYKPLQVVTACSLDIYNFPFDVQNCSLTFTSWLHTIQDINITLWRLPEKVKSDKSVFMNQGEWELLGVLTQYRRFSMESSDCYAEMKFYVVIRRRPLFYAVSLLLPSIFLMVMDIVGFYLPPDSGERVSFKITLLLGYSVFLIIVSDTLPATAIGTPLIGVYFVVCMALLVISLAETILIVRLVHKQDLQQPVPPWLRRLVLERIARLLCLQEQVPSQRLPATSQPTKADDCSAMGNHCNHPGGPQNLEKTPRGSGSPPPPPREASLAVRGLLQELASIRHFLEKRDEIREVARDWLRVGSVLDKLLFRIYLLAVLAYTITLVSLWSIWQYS
The conditions noted are these: reported by J. R. Fozard et al, Eur. J. Pharmacol. 1979 / 1978; cited from earlier work.

The target in data set [2] is T1, 5-HT M-receptor. The experiment in a line: pA2 against 5-HT in isolated rabbit heart. Format: cell-based. The conditions noted are these: isolated rabbit heart; negative log of molar concentration of antagonist reducing effect of twice the ED50 of 5-HT to that of the ED50; read-out: pA2 5-HT (converted). The protocol:
(§1) The activity of the compounds against 5-HT can be assessed by determining their pA2 values in the isolated rabbit heart as described by J. R. Fozard et al, Eur. J. Pharmacol., 59, 195-210 (1979). In the method described, the molar concentration of antagonist which reduces the effects of twice the ED50 of 5-HT to that of the ED50 in the absence of antagonist is determined. The pA2 value is the negative logarithm of said molar concentrations.

Data set [3] deals with rat fundus. The experiment in a line: Inhibition of standard response to acetylcholine, rat fundus. The conditions noted are these: agonist acetylcholine, read-out: Concentration to inhibit standard response to stimulants by 50% (IC50). Format: cell-based. The text has this:
(§2) A selection of classical in vitro pharmacological test preparations (rat uterus, rat fundus, guinea-pig ileum, guinea-pig taenia caeci) were set up according to well-established procedures (see "Pharmacological Experiments on Isolated Preparations" Staff of the Department of Pharmacology, University of Edinburgh, Livingstone, Edinburgh 1970). Various spasmogens were used to elicit contraction of these tissues though mechanisms other than the 5-HT "M" receptor. The concentrations of tropyl 3,5-dimethoxybenzoate (A), tropyl 3,5-dimethylbenzoate (B) and tropyl 3,5-dichlorobenzoate (C) which reduced the effects of a submaximal dose of agonist by 50% were determined (IC50). The results are set forth in Table VI below in which the compounds are identified by the reference letters used above.

The test system of data set [4] is guinea-pig ileum. Briefly: Inhibition of standard response to acetylcholine, guinea-pig ileum. Format: cell-based. The conditions noted are these: Cavia porcellus, agonist acetylcholine, read-out: Concentration to inhibit standard response to stimulants by 50% (IC50).
Text: as §2

The subject of another data set is guinea-pig taenia caeci. The experiment in a line: Inhibition of standard response to calcium, guinea-pig taenia caeci. The class given is cell-based. The note with it: Cavia porcellus; guinea-pig taenia caeci in potassium-depolarized Tyrode solution, agonist calcium; read-out: Concentration to inhibit standard response to stimulants by 50% (IC50).
Text: as §2
*In potassiumdepolarized Tyrode solution

Data set [5] relates to guinea-pig ileum. Briefly: Inhibition of standard response to histamine, guinea-pig ileum. The note with it: Cavia porcellus, agonist histamine, read-out: Concentration to inhibit standard response to stimulants by 50% (IC50). The class given is cell-based.
Text: as §2

Data set [6] deals with Von Bezold-Jarisch Reflex (5-HT M-receptor). The experiment in a line: Antagonism of the Von Bezold-Jarisch reflex evoked by 5-HT in the anaesthetized rat. Format: in vivo, rat (male Sprague-Dawley). The conditions noted are these: comparison in words, i.v. The text has this: The activity of these compounds against 5-HT can be assessed in vivo by measurement of the effect of the compound on the Von Bezold-Jarisch Reflex induced by 5-HT injected intravenously into the rat (A. S. Paintal, Physiol. Rev. 53, 159-227, 1973). The transient caridac slowing arises from an increased afferent vagus activity arising from stimulation by 5-HT of sensory afferent fibres in and around the heart (see Example 3).
Antagonism of the Von Bezold-Jarisch reflex evoked by 5-HT in the anaesthetized rat was measured for tropyl 3,5-dimethoxybenzoate (A), tropyl 3,5-dimethylbenzoate (B) and tropyl 3,5-dichlorobenzoate (C) using the following method.
Male Sprague-Dawley rats weighing 250-300 g are anaesthetized with urethane, 1.25 g/kg injected intraperitoneally and set up for recording blood pressure and heart rate as described in J. R. Fozard et al, J. Cardiovas. Pharmacol. 2, 229-245 (1980). A submaximal dose of 5-HT ([…]) is given repeatedly into the cannulated jugular vein and changes in heart rate are quantified. Antagonists are given intravenously and the doses required to just inhibit the response to 5-HT (threshold dose) or to inhibit the response to 5-HT by 50% (ED50) are determined.

Data set [7] addresses T2, rabbit heart (5-HT M receptor) (Oryctolagus cuniculus, UniProt A0A5F9C9J3).
T2 construct: RABBIT HEART; from tissue; host or cells: rabbit heart
T2 sequence (A0A5F9C9J3 1-494): T1 sequence (A0A5F9C9J3 1-494)
Briefly: Inhibition of standard response to 5-HT, rabbit heart. Format: cell-based. The note with it: rabbit heart, agonist 5-HT; read-out: Concentration to inhibit standard response to stimulants by 50% (IC50). As for the experimental part: as §1, §2

Data set [8] relates to rat fundus. The experiment in a line: Inhibition of standard response to 5-HT, rat fundus. The conditions noted are these: agonist 5-HT, read-out: Concentration to inhibit standard response to stimulants by 50% (IC50). Format: cell-based.
Text: as §2

For data set [9], the system named is rat uterus. Briefly: Inhibition of standard response to 5-HT, rat uterus. The class given is cell-based. The conditions noted are these: agonist 5-HT, read-out: Concentration to inhibit standard response to stimulants by 50% (IC50).
Text: as §2

A short description of a further data set: LD50 in the rat. The note with it: in vivo, iv.
Data set [10] concerns rat uterus. The experiment in a line: Inhibition of standard response to oxytocin, rat uterus. Format: cell-based. The note with it: agonist oxytocin, read-out: Concentration to inhibit standard response to stimulants by 50% (IC50).
Text: as §2

In the next data set the test system is mouse. Briefly: LD50 in the mouse. Format: in vivo. The note with it: as shown by LD50 values in the mouse and rat.
The nature of another data set: LD50 in the mouse. The class given is in vivo. The conditions noted are these: in vivo, mouse.

In the case of `CC(C)NC[C@H](O)COc1cccc2ccccc12` (racemic) [propanolol], the “5-HT D-receptor antagonism” value in the data set with 5-HT D-receptor is 5-HT D-receptor antagonists.
Turning to `COC(=O)C1C2CCC(CC1OC(=O)c1ccccc1)N2` (single isomer, unassigned) [nor(-) cocaine], the “pA2 value (5-HT)” value at 5-HT M-receptor [1] is on record as 7.7.
In the case of `CN(C)CCC=C1c2ccccc2CCc2ccccc21` [amitriptyline], in the data set on 5-HT D-receptor, the “5-HT D-receptor antagonism” value was 5-HT D-receptor antagonists.
For `CN(C)CCCN1c2ccccc2Sc2ccc(Cl)cc21` [chlorpromazine], in the data set with 5-HT D-receptor, the “5-HT D-receptor antagonism” value is recorded as 5-HT D-receptor antagonists.
Regarding `CC[C@@H](CO)NC(=O)[C@@H]1C=C2c3cccc4c3c(cn4C)C[C@H]2N(C)C1` [methysergide], in the data set on 5-HT D-receptor, the “5-HT D-receptor antagonism” value was 5-HT D-receptor antagonists.
With `O=C(O[C@H]1C[C@H]2CC[C@@H](C1)N2)c1cc(Cl)cc(Cl)c1` [nortropyl 3,5-dichlorobenzoate, reference compound], the Kb on 5-HT M-receptor [2] was 15.8 nM.
On the same count and under the same terms, for `COc1cc(C(=O)O[C@H]2C[C@H]3CC[C@@H](C2)N3C)cc(OC)c1OC` [tropyl 3,4,5-trimethoxybenzoate] the value was 3.16 nM.
The same measure, in the same setting: as for `COc1ccc(C(=O)O[C@H]2C[C@H]3CC[C@@H](C2)N3C)cc1OC` [tropyl 3,4-dimethoxybenzoate, reference compound], the figure is 63.1 nM.
In the case of `COc1cc(OC)cc(C(=O)O[C@H]2C[C@H]3CC[C@@H](C2)N3C)c1` [tropyl 3,5-dimethoxybenzoate], the IC50 is 13100 nM in the data set on rat fundus [3]; 9560 nM in the data set on guinea-pig ileum [4]; 36100 nM in the data set with guinea-pig taenia caeci; 6610 nM with guinea-pig ileum [5]; 9.4 nM in [7]; 40000 nM in the data set on rat fundus [8]. Further, the IC50 in the data set on rat uterus [9] and in the data set on rat uterus [10] was above 52500 nM each time. The “potency relative to metoclopramide” value in [6] is listed as “many times more potent than metoclopramide”. Further, the Kb on 5-HT M-receptor [2] was 3.98 nM. Moreover, the LD50 in “LD50 in the rat” turned out to be 13 mg/kg; in the data set “LD50 in the mouse” (ip), 28 mg/kg; in the data set “LD50 in the mouse” (iv), 29 mg/kg; in “LD50 in the mouse” (sc), 17 mg/kg; in the data set “LD50 in the mouse” (oral), 160 mg/kg. The toxicity in words entry in the data set with mouse is given as “relatively non-toxic”.
Turning to `CN1[C@@H]2CC[C@H]1C[C@@H](OC(=O)c1cccc(Cl)c1)C2` [tropyl 3-chlorobenzoate], the Kb at 5-HT M-receptor [2] was 2.51 nM.
Still for that read-out and setting: as for `Cc1cccc(C(=O)O[C@H]2C[C@H]3CC[C@@H](C2)N3C)c1` [tropyl 3-methylbenzoate], the figure is 6.31 nM; as for `CN1[C@@H]2CC[C@H]1C[C@@H](OC(=O)c1ccc(Cl)cc1)C2` [tropyl 4-chlorobenzoate, reference compound], 100 nM.
As for `Cc1ccc(C(=O)O[C@H]2C[C@H]3CC[C@@H](C2)N3C)cc1` [tropyl 4-methylbenzoate, reference compound], the Kb at 5-HT M-receptor [2] is 15.8 nM.
For the compound `CN1[C@@H]2CC[C@H]1C[C@@H](OC(=O)c1ccccc1)C2` [tropylbenzoate, reference compound], the “pA2 value (5-HT)” value at 5-HT M-receptor [1] is on record as 7.12. In addition, the Kb on 5-HT M-receptor [2] was 63.1 nM.
